From ChEMBL document CHEMBL1201862, “PubChem BioAssay data set” (2004)
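Each compound was tested at five concentrations against cells in 96-well plates for 48 hours. Abbreviation: GI50, concentration required for 50% inhibition of growth.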 Calls of active or inactive are those of the source. No stated cut-off is given here; in the data, active = GI50 up to about 1.1 µM and inactive = higher.

Key:
Test in all cases: DTP human tumour cell line panel, 48 h
[1] = tested on: DMS-114
[2] = tested on: DLD-1
[3] = tested on: HOP-18
[4] = tested on: M19-MEL
[5] = tested on: KM-20L2
[6] = tested on: XF498
[7] = tested on: DMS-273
[8] = tested on: SNB-78
[9] = tested on: RXF 631

Measured: GI50

CCCN1CC=CCC1
inactive: [1] > 100 µM | [2] > 100 µM | [3] > 100 µM | [4] > 100 µM | [5] > 100 µM | [6] > 100 µM

COC(=O)C(=O)C(C(C)=O)C(=O)NCc1ccccc1 (centres undefined)
inactive: [1] > 100 µM | [7] > 100 µM | [2] > 100 µM | [3] > 100 µM | [4] > 100 µM | [5] > 100 µM | [8] > 100 µM | [6] > 100 µM

CCC1CN2CCc3c([nH]c4ccccc34)C2C[C@@H]1CC(=O)N(C)C (some centres undefined)
inactive: [1] > 100 µM | [7] > 100 µM | [2] > 100 µM | [3] > 100 µM | [4] > 100 µM | [5] > 100 µM | [8] > 100 µM | [6] > 100 µM

O=C(O)CNS(=O)(=O)c1ccc(NCc2ccccc2)cc1
inactive: [1] > 100 µM | [7] > 100 µM | [2] > 100 µM | [3] > 100 µM | [4] > 100 µM | [5] > 100 µM | [8] > 100 µM | [6] > 100 µM

CCOc1ccc2c(c1)[n+]([O-])c(S(=O)(=O)c1ccc(C)cc1)c(N)[n+]2[O-]
inactive: [1] > 100 µM | [2] > 100 µM | [3] > 100 µM | [4] > 100 µM | [5] > 100 µM | [8] > 100 µM

Cc1ccc(C(=O)N(C(C)C)C(C)C)cc1/N=N/N(C)C
inactive: [7] > 100 µM | [2] 77.4 µM | [4] > 100 µM | [5] > 100 µM | [8] 35.9 µM

Cc1cc(N(CCC#N)CCC#N)ccc1/C=C1N=C(/C=C/c2ccccc2)N(c2ccc(S(N)(=O)=O)cc2)C\1=O
inactive: [1] > 100 µM | [2] > 100 µM | [9] > 100 µM | [4] > 100 µM | [5] > 100 µM | [8] > 100 µM

Cc1cc(Cl)ccc1NC(=O)C(=O)Cc1occc(=O)c1O
inactive: [1] > 100 µM | [7] > 100 µM | [2] > 100 µM | [3] > 100 µM | [9] > 100 µM | [4] > 100 µM | [5] > 100 µM | [8] > 100 µM | [6] > 100 µM

COc1ccc2oc3c4c2c1CCC4CCC3=O (centres undefined)
inactive: [1] > 100 µM | [7] > 100 µM | [9] > 100 µM | [4] > 100 µM | [8] > 100 µM | [6] > 100 µM

COC(=O)CCC(NC(=S)N/N=C(\C)c1cnc2ccccc2n1)C(=O)OC (centres undefined)
inactive: [7] 38.5 µM | [2] 29 µM | [3] 39.4 µM | [9] 52.6 µM | [5] 15.5 µM | [8] > 100 µM | [6] > 100 µM

COc1ccc(/C=C\c2cc(OC)c3c(c2)OCO3)c(O)c1O
inactive: [1] 2.88 µM | [7] 20 µM | [2] 6.28 µM | [3] 20.6 µM | [4] 6.19 µM | [5] 23.2 µM | [8] 3.94 µM | [6] 11.1 µM

BrC1(Br)C2/C=C\CCCCC21 (centres undefined)
inactive: [7] > 100 µM | [3] > 100 µM | [4] > 100 µM | [5] > 100 µM | [8] > 100 µM | [6] > 100 µM

Cc1ccc(Oc2ccc(C)cc2N)cc1
inactive: [1] 49.4 µM | [7] 75 µM | [2] 66.1 µM | [3] > 100 µM | [4] > 100 µM | [5] > 100 µM | [8] 75.5 µM

COc1ccc2nc(-c3ccc(OCc4ccccc4)cc3)ccc2c1
inactive: [1] > 100 µM | [2] > 100 µM | [3] > 100 µM | [4] > 100 µM | [5] > 100 µM | [8] > 100 µM | [6] > 100 µM

Oc1cc(-c2ccccn2)nc2cccc(F)c12
inactive: [1] > 100 µM | [2] > 100 µM | [3] > 100 µM | [9] > 100 µM | [4] > 100 µM | [5] > 100 µM | [8] > 100 µM

O=C(Cc1ccccc1)N/N=C(\C1=Nc2ccc([N+](=O)[O-])cc2NC1O)C(O)c1ccc([N+](=O)[O-])cc1 (centres undefined)
inactive: [2] > 100 µM | [3] > 100 µM | [9] > 100 µM | [4] > 100 µM | [5] > 100 µM | [8] > 100 µM | [6] > 100 µM

CC1(c2ccc(F)cc2)C2C(=O)NC(=O)C1C(=O)NC2=O (centres undefined)
inactive: [1] > 100 µM | [7] > 100 µM | [2] > 100 µM | [4] > 100 µM | [5] > 100 µM | [8] > 100 µM | [6] > 100 µM

C#CCN(N=O)C(=O)NC(CCCCNC(=O)OCc1ccccc1)C(=O)OCc1ccccc1 (centres undefined)
inactive: [1] 19.8 µM | [7] 43.9 µM | [2] 20.1 µM | [3] 20 µM | [4] 34.2 µM | [5] 54.6 µM | [8] 34.1 µM

COc1ccccc1C(O)(c1ccccc1)C(O)(c1ccccc1)c1ccccc1OC (centres undefined)
inactive: [1] > 100 µM | [7] > 100 µM | [2] > 100 µM | [3] > 100 µM | [9] > 100 µM | [4] > 100 µM | [5] > 100 µM | [8] > 100 µM | [6] > 100 µM

CCOP(=O)(OCC)C(C(=O)OC)C(=O)C(=O)Nc1c(C)cc(Br)cc1C (centres undefined)
inactive: [1] > 100 µM | [7] > 100 µM | [2] > 100 µM | [3] 49.7 µM | [9] > 100 µM | [4] > 100 µM | [5] > 100 µM | [8] > 100 µM | [6] > 100 µM

Cc1c(C(=O)/C=C/c2ccco2)[n+]([O-])c2ccccc2[n+]1[O-]
inactive: [1] 73.5 µM | [7] > 100 µM | [2] > 100 µM | [3] > 100 µM | [9] 18.6 µM | [4] > 100 µM | [5] > 100 µM | [8] > 100 µM | [6] > 100 µM

CC1C2=CC=C(O2)C(C)(C)C2=CC=C(O2)C(C)(C)C2=CC=C(O2)C(C)(C)C2=CC=C1O2
inactive: [7] > 100 µM | [3] > 100 µM | [4] > 100 µM | [5] > 100 µM | [8] > 100 µM | [6] > 100 µM

COc1ccc(C(=O)Cc2c(C(=O)c3ccccc3)c3ccccc3n2C(=O)c2ccccc2)cc1
inactive: [1] 50.7 µM | [7] 5.38 µM | [2] 74 µM | [4] > 100 µM | [5] > 100 µM | [6] > 100 µM
